2 molecules from patent publication US8318780B2 (Intermune, Inc., priority 2009, dated 2012) can be followed below.

A short description of data set [1]: Phase 1 open-label study of the impact of fluvoxamine on the pharmacokinetics of pirfenidone in healthy subjects. To be noted: for Ratio of Day 11 AUC0-∞ to Day 1 AUC0-∞, Mean (SD) / Ratio of Day 11 AUC0-∞ to Day 1 AUC0-∞, Median (25th-75th): Day 11 with fluvoxamine vs Day 1 without; for AUC0-∞, Mean (SD) / AUC0-∞, Median (25th-75th): single 801-mg dose of pirfenidone, healthy subjects, n = 51, plasma.
Description: Study Design. The study was a Phase 1, open-label, parallel-group study in healthy subjects. Fifty-four subjects were to be enrolled in two groups, consisting of 27 subjects who were smokers (Group 1) and 27 subjects who were nonsmokers (Group 2). […] Each group (smokers and nonsmokers) was to include a minimum of nine females and nine males, and attempts were to be made to enroll equal numbers of each sex in each group.

A further data set concerns the target T1, CYP1A2 (Homo sapiens, UniProt P05177).
T1 sequence (P05177 1-516): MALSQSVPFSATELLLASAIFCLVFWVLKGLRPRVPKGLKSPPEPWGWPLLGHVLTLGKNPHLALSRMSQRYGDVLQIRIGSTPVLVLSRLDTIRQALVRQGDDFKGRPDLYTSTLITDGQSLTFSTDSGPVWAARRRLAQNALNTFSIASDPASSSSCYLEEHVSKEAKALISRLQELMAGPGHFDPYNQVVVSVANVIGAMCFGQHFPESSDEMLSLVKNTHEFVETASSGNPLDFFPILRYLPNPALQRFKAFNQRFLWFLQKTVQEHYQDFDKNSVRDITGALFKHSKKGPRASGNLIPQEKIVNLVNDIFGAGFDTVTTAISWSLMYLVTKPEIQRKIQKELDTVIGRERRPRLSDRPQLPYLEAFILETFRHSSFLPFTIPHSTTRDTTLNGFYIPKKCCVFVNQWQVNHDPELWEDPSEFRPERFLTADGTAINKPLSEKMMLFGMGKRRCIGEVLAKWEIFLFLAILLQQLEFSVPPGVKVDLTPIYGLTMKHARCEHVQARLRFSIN
Description: In vitro metabolism of pirfenidone by CYP isoforms. The class given is in vitro ADME.

Data set [2] has as its system multiple other CYPs (1A1, 2A6, 2B6, 2C8, 2C9, 2C18, 2C19, 2D6, 2E1, 2J2, 3A4, 3A5, 4A11, and 4F2). The data set is described as follows: In vitro metabolism of pirfenidone by CYP isoforms. The class given is in vitro ADME. Particulars: each isoform. The source says: There are no unique human metabolites.
The mark [3] stands for this setting: Study Day 11: Post-Fluvoxamine (fluvoxamine Days 2-11).

For `O=C(O)c1ccc(=O)n(-c2ccccc2)c1` [5-Carboxy-Pirfenidone, 5 carboxy-pirfenidone], the “Ratio of Cmax on Day 11 to the Cmax on Day 1, mean (95% CI)” value in data set [1] (Day 11 post-fluvoxamine vs Day 1 pre-fluvoxamine, all subjects) is given as 0.369 (0.349-0.390). In data set [1] (Day 11 vs Day 1), the “Effect of fluvoxamine co-administration on AUC0-∞ (significance, paired t-test)” value was “not a statistically significant effect”. Moreover, in data set [1] (Nonsmokers, N 25), the “Ratio of Day 11 AUC0-∞ to Day 1 AUC0-∞, Mean (SD)” value was 1.05 (0.114) and the “Ratio of Day 11 AUC0-∞ to Day 1 AUC0-∞, Median (25th-75th)” value is given as 1.03 (0.978-1.11). For the same molecule, in data set [1] (Smokers, N 26), the “Ratio of Day 11 AUC0-∞ to Day 1 AUC0-∞, Mean (SD)” value is 1.12 (0.0951) and the “Ratio of Day 11 AUC0-∞ to Day 1 AUC0-∞, Median (25th-75th)” value was 1.13 (1.04-1.19). For the same molecule, in data set [1] (Study Day 1: Pre-Fluvoxamine), the “AUC0-∞, Mean (SD)” value was 29.3 (8.22) mg · hr/L and the “AUC0-∞, Median (25th-75th)” value was 26.9 (22.0-33.7) mg · hr/L. In addition, in data set [1] (setting [3]), the “AUC0-∞, Mean (SD)” value is 31.7 (8.96) mg · hr/L and the “AUC0-∞, Median (25th-75th)” value is recorded as 29.4 (25.4-36.5) mg · hr/L.

Consider `Cc1ccc(=O)n(-c2ccccc2)c1` [Pirfenidone, 5-methyl-1-phenyl-2-(1H)-pyridone], for which, on CYP1A2, the “Share of pirfenidone metabolism by CYP1A2” value is “approx 48%”. In data set [2], the “Share of pirfenidone metabolism by each other CYP” value is on record as less than 13%.
